This is an account of results in patent publication US5858975A, “Oxyntomodulin peptide having cardiotonic activity and insulin release-bromating activity” (Kyowa Hakko Kogyo Co., Ltd., priority 1994, dated 1999).

The subject of assay [1] is eel atrium. Kind of assay: Effect of OXM in eel atrium (isolated atrium, tension transducer). The following applies: isolated eel atrium in Ringer's solution, varying OXM concentration. The procedure:
Test Example 1 Effect of OXM in Eel Atrium
An atrium was taken out of an eel, and one end of said atrium was fixed to the bottom of syringe filled with 1.5 ml of Ringer's solution in which was introduced a mixed gas of oxygen and carbon dioxide (95:5), while the other end thereof was connected to a tension transducer (NEC) via a silk thread. 15 μl of an aqueous solution of OXM as diluted with distilled water to have a varying concentration was added to said Ringer's solution, whereupon the tension to be generated by the atrial contraction was measured through the tension transducer. OXM used herein was the product as produced in Example 2. During this measurement, the atrial rate was also counted.

In assay [2] the test system is plasma insulin concentration. Kind of assay: Effect of OXM on plasma insulin concentration of anesthetized rat. The class given is in vivo. Particulars: anesthetized fasted male SD rats, cumulative administration via jugular vein, blood 5 minutes after each dose; FIG. 3. The procedure: Test Example 2 Effect of OXM on Plasma Insulin Concentration of Anesthetized Rat
Male SD rats (370 to 450 g) were bred with no feed for from 15 to 20 hours, and then Na pentobarbital (50 mg/kg) was intra-abdominally administered thereto. A blood-collecting cannula was inserted into the carotid artery of each rat. A dosed cannula was inserted into the jugular vein of each rat. About 600 μl of blood was collected from each rat before the administration of a test chemical, and 5 minutes after each administration of a varying dose of the said test chemical. OXM obtained in Example 2 was added to physiological saline solution to adjust concentration of 1 mg/ml. The said OXM solution was diluted with a physiological saline solution, the thus-diluted solution was accumulatively administered to each rat. The dose of the solution was 1 ml/kg. The collected blood was centrifuged, and its insulin concentration was measured according to the Insulin-EIA Test (Wako Pure Chemicals).

For the substance “H-HSQGTFTNDYSKYLETRRAQDFVQWLMNSKRSGGPT-OH [OXM]”, in assay [1] (FIG. 1), the “atrial systole (atrial tension)” value is recorded as “dose-dependently increases”. Besides, the atrial rate result in assay [1] (FIG. 2) is “dose-dependently increases”. Further, in assay [2], the “dose at which plasma insulin concentration is increased” value is recorded as ≥ 0.01 mg/kg.
